{"source": "patent US20200278355A1", "about": "“CONJUGATED PROTEINS AND USES THEREOF” (THE SCRIPPS RESEARCH INSTITUTE, priority 2017, published 2020)", "key": {"TXN": {"biological_target": "T1, TXN (Homo sapiens, UniProt P10599)", "T1 construct": "H460 cells or H460 cells expressing luciferase in a 10 cm plate were incubated with indicated compounds; endogenous in cells; host or cells: H460", "T1 sequence (P10599 whole entry)": "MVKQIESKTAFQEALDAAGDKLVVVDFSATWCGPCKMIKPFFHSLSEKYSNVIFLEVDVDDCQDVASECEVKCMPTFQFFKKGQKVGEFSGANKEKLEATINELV", "assay": "isoTOP-ABPP of compound-treated H460 cells: TXN", "format": "cell-based", "settings": "TXN C35; 40 μM", "description": "For analysis of NR0B1 ligands or control compound reactivity, H460 cells or H460 cells expressing luciferase in a 10 cm plate were incubated with indicated compounds in serum/dye-free RPMI for 3 hours at 37° C. Cells were washed once ice-cold PBS and lysed in 1% Triton X-100 dissolved in PBS with protease inhibitors (Sigma) by sonication. Samples were clarified by centrifugation for 10 min at 16,000×g. Lysate was adjusted to 1.5 mg ml^−1 in 500 μL.\nSamples were labeled for 1 h at ambient temperature with 100 μM iodoacetamide alkyne (1, IA-alkyne, 5 μL of 10 mM stock in DMSO). Samples were conjugated by copper-catalyzed azide-alkyne cycloaddition (CuAAC) to isotopically labeled, TEV-cleavable tags (TEV-tags). Heavy CuAAC reaction mixtures was added to the DMSO-treated or shGFP control samples and light CuAAC reaction mixture was added to compound-treated or shNRF2 samples. The CuAAC reaction mixture consisted of TEV tags (light or heavy, 10 μL of 5 mM stocks in DMSO, final concentration=100 μM), 1 mM tris(2-carboxyethyl)phosphine hydrochloride (TCEP; fresh 50× stock in water, final concentration=1 mM), ligand (17× stock in DMSO:t-butanol 1:4, final concentration=100 μM) and 1 mM CuSO4 (50× stock in water, final concentration=1 mM). The samples were allowed to react for 1 h at which point the samples were centrifuged (16,000×g, 5 min, 4° C.). […]"}, "NUDT8": {"biological_target": "T2, NUDT8 (Homo sapiens, UniProt Q8WV74)", "T2 construct": "H460 cells or H460 cells expressing luciferase in a 10 cm plate were incubated with indicated compounds; endogenous in cells; host or cells: H460", "T2 sequence (Q8WV74 whole entry)": "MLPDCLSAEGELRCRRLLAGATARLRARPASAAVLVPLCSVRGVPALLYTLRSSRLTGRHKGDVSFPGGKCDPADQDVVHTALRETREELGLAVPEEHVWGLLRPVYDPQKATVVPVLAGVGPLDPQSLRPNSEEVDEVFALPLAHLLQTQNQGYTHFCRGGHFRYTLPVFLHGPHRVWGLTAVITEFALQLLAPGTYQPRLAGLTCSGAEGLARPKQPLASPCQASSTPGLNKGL", "assay": "ABPP-SILAC BPK-29yne competition in H460 cells: NUDT8", "format": "cell-based", "settings": "20 μM", "description": "Isotopically labeled H460 cell lines were generated as described above. Light and heavy cells were treated with compounds (20 μM) or DMSO, respectively, for 3 h, followed by labeling with the BPK-29yne (5 μM) for 30 min. Cells were washed once ice-cold PBS and lysed in 1% Triton 100-X dissolved in PBS with protease inhibitors (Sigma) by sonication. Lysate was adjusted to 1.5 mg ml^−1 in 500 μL. Samples were conjugated by CuAAC to Biotin-PEG4-azide (5 μL of 10 mM stocks in DMSO, final concentration=100 μM). CuAAC “click” mix contained TCEP, TBTA ligand and CuSO4 as detailed for isoTOP-ABPP sample preparation. Samples were further processed as detailed in: isoTOP-ABPP streptavidin enrichment and isoTOP-ABPP trypsin TEV digestion with the following exception: after overnight incubation at 37° C. with trypsin, tryptic digests were separated from the beads with Micro Bio-Spin columns (Bio-Rad) by centrifugation (1,000×g, 1 min). Beads were rinsed once with water (200 μL) and combined with tryptic digests. […]\nThe MS2 spectra data were extracted and searched using RAW Convertor and ProLuCID algorithm as described in isoTOP-ABPP peptide and protein quantification. […] Ratios of heavy/light (DMSO/test compound) peaks were calculated using in-house CIMAGE software. […] The mean R values and standard deviation for multiple biological experiments were calculated from the average ratios from each replicate. […]"}}, "data": [{"compound": "O=C(c1ccc(N2CCOCC2)cc1)N1CCCC(N(Cc2ccccc2)C(=O)CCl)CC1", "note": "(centres unmarked) [BPK-29, N-benzyl-2-chloro-N-(1-(4-morpholinobenzoyl)azepan-4-yl)acetamide]", "values": [{"measurement": "BPK-29-competed isoTOP-ABPP analysis", "setting": "TXN", "result": "Yes (Competed defined as showing R value ≥ 3.0 at 40 μM of test compound)"}, {"measurement": "BPK-29-competed BPK-29yne analysis", "setting": "NUDT8", "result": "Yes (Competed defined as showing R value ≥ 2.5 at 20 μM of test compound)"}]}]}
